Experimental data: ChEMBL document CHEMBL6134848, “Deuteration Strategy-Inspired Design of Novel Diarylpyrimidine Derivatives as Potent Non-Nucleoside Reverse Transcriptase Inhibitors Featuring Improved Efficacy, Selectivity, and Druggability” (J Med Chem, 2025)

Experiments:
[1] = test system: Human immunodeficiency virus 1; test: Antiviral activity against drug-resistant HIV-1 harboring RT K103N mutant infected in human MT4 cells assessed as protection against virus-induced cytopathicity measured after 5 days post-infection by MTT assay; format: functional, organism-based; conditions: Human immunodeficiency virus 1, MT4, 120 h
[2] = test system: Human immunodeficiency virus 1; test: Antiviral activity against drug-resistant HIV-1 harboring RT E138K mutant infected in human MT4 cells assessed as protection against virus-induced cytopathicity measured after 5 days post-infection by MTT assay; format: functional, organism-based; conditions: Human immunodeficiency virus 1, MT4, 120 h
[3] = molecular target: Human immunodeficiency virus type 1 reverse transcriptase (Human immunodeficiency virus 1, UniProt Q72547); test: Inhibition of recombinant wild type HIV-1 reverse transcriptase incubated for 40 mins in presence of poly(rA) template/oligo(dT)16 primer by Pico-Green dye based analysis
[4] = test system: Human immunodeficiency virus 1; test: Antiviral activity against wild-type HIV-1 IIIB infected in human MT4 cells assessed as protection against virus-induced cytopathicity measured after 5 days post-infection by MTT assay; format: functional, organism-based; conditions: Human immunodeficiency virus 1, IIIB, MT4, 120 h
[5] = Cytotoxicity against human MT4 cells assessed as reduction in cell viability by MTT assay; format: toxicity, cell-based
[6] = test system: Human immunodeficiency virus 1; test: Antiviral activity against drug-resistant HIV-1 harboring RT Y188L mutant infected in human MT4 cells assessed as protection against virus-induced cytopathicity measured after 5 days post-infection by MTT assay; format: functional, organism-based; conditions: Human immunodeficiency virus 1, MT4, 120 h
[7] = Metabolic stability in human liver microsomes assessed as half life at 1 uM measured up to 45 mins by LC/MS/MS analysis; format: ADME, Microsome; conditions: liver microsomes
[8] = test system: Human immunodeficiency virus 1; test: Antiviral activity against drug-resistant HIV-1 harboring RT L100I mutant infected in human MT4 cells assessed as protection against virus-induced cytopathicity measured after 5 days post-infection by MTT assay; format: functional, organism-based; conditions: Human immunodeficiency virus 1, MT4, 120 h
[9] = test system: Human immunodeficiency virus 1; test: Antiviral activity against drug-resistant HIV-1 harboring RT Y181C mutant infected in human MT4 cells assessed as protection against virus-induced cytopathicity measured after 5 days post-infection by MTT assay; format: functional, organism-based; conditions: Human immunodeficiency virus 1, MT4, 120 h
[10] = test system: Human immunodeficiency virus 1; test: Antiviral activity against drug-resistant HIV-1 harboring RT RES056 mutant infected in human MT4 cells assessed as protection against virus-induced cytopathicity measured after 5 days post-infection by MTT assay; format: functional, organism-based; conditions: Human immunodeficiency virus 1, MT4, 120 h
[11] = test system: Human immunodeficiency virus 1; test: Antiviral activity against drug-resistant HIV-1 harboring RT F227L/V106A mutant infected in human MT4 cells assessed as protection against virus-induced cytopathicity measured after 5 days post-infection by MTT assay; format: functional, organism-based; conditions: Human immunodeficiency virus 1, MT4, 120 h
[12] = Stability in human plasma assessed as compound remaining at 1 uM measured after 3 hrs by LC-MS/MS analysis; format: ADME, cell-free; conditions: read-out: Stability
[13] = Stability in human plasma assessed as compound remaining at 1 uM measured immediately by LC-MS/MS analysis; format: ADME, cell-free; conditions: read-out: Stability
[14] = Selectivity index, ratio of CC50 for cytotoxicity against human MT4 cells to EC50 for antiviral activity against wild-type HIV-1 IIIB infected in human MT4 cells; format: toxicity, cell-based; conditions: read-out: Ratio CC50/EC50

| SMILES | EC50 [1] | EC50 [2] | IC50 [3] | EC50 [4] | CC50 [5] | EC50 [6] | half-life at 1 µM [7] | EC50 [8] | EC50 [9] | EC50 [10] | EC50 [11] | remaining at 3 h, 1 µM [12] | remaining at 0 h, 1 µM [13] | selectivity ratio [14] |
| --- | --- | --- | --- | --- | --- | --- | --- | --- | --- | --- | --- | --- | --- | --- |
| [2H]C([2H])([2H])c1cc(/C=C/C#N)cc(C)c1Nc1ccnc(Nc2ccc(C#N)cc2)n1 | 1.96 nM | 4.6 nM | 30 nM | 1.17 nM | 6560 nM | 72.6 nM | 19.4 min | 2.3 nM | 2.71 nM | 12.9 nM | 69.8 nM | – | – | – |
| CC[C@H](C)C(=O)O[C@H]1C[C@@H](C)C=C2C=C[C@H](C)[C@H](CC[C@@H]3C[C@@H](O)CC(=O)O3)[C@H]21 [LOVASTATIN] | – | – | – | – | – | – | – | – | – | – | – | 33.3% | 100% | – |
| [2H]C([2H])([2H])c1cc(/C=C/C#N)cc(C([2H])([2H])[2H])c1Nc1ccnc(Nc2ccc(C#N)cc2)n1 | 1.81 nM | 5.84 nM | 20 nM | 1.41 nM | 6590 nM | – | 22.8 min | 2.42 nM | 2.75 nM | 13.2 nM | 76.2 nM | – | – | – |
| [2H]C([2H])([2H])c1cc(-c2ccc(C#N)cc2)cc(C)c1Nc1ccnc(Nc2ccc(C#N)cc2)n1 | 3.81 nM | 8.64 nM | 380 nM | 2.5 nM | 5940 nM | 57.5 nM | 16.6 min | 2.74 nM | 6.14 nM | 58.6 nM | 626 nM | – | – | 2370 |
| [2H]C([2H])([2H])c1cc(C#N)cc(C([2H])([2H])[2H])c1Oc1nc(NC2CCN(Cc3ccc(C(N)=O)cc3)CC2)nc2ccccc12 | 23.6 nM | 38.1 nM | 210 nM | 7.31 nM | 90200 nM | 60.7 nM | – | 32.9 nM | 61.8 nM | 1390 nM | 186 nM | – | – | 12300 |
| [2H]C([2H])([2H])c1cc(C#N)cc(C)c1Oc1nc(NC2CCN(Cc3ccc(S(N)(=O)=O)cc3)CC2)nc2sccc12 | 8.84 nM | 49.7 nM | 160 nM | 6.39 nM | > 227000 nM | 55.5 nM | – | 17.4 nM | 21.2 nM | 148 nM | 428 nM | – | – | > 35500 |
| [2H]C([2H])([2H])c1cc(C#N)cc(C)c1Oc1nc(NC2CCN(Cc3ccc(S(N)(=O)=O)cc3)CC2)nc2scnc12 | 4.39 nM | 28.1 nM | 150 nM | 2.8 nM | 14900 nM | 45.5 nM | – | 10.9 nM | 10.1 nM | 57.6 nM | 181 nM | – | – | 5320 |
| [2H]C([2H])([2H])c1cc(C#N)cc(C([2H])([2H])[2H])c1Oc1nc(NC2CCN(Cc3ccc(S(N)(=O)=O)cc3)CC2)nc2sccc12 | 4.28 nM | 19.5 nM | 160 nM | 6.53 nM | > 225000 nM | 10.4 nM | – | 6.44 nM | 11.2 nM | 141 nM | 8.79 nM | – | – | > 34500 |
| [2H]C([2H])([2H])c1cc(-c2ccc(C#N)cc2)cc(C([2H])([2H])[2H])c1Nc1ccnc(Nc2ccc(C#N)cc2)n1 | 2.9 nM | 8.93 nM | 380 nM | 1.83 nM | 5980 nM | 55.1 nM | 16.7 min | 2.72 nM | 7.57 nM | 68.8 nM | 697 nM | – | – | 3260 |
| [2H]C([2H])([2H])c1cc(C#N)cc(C)c1Oc1nc(NC2CCN(Cc3ccc(S(N)(=O)=O)cc3)CC2)nc2ccccc12 | 6.92 nM | 10.6 nM | 210 nM | 3.07 nM | > 229000 nM | 54.2 nM | – | 8.11 nM | 12.9 nM | 245 nM | 44.3 nM | – | – | > 74600 |
| [2H]C([2H])([2H])c1cc(C#N)cc(C([2H])([2H])[2H])c1Oc1nc(NC2CCN(Cc3ccc(S(N)(=O)=O)cc3)CC2)nc2ccccc12 | 8.7 nM | 37.4 nM | 230 nM | 5.47 nM | 24300 nM | 150 nM | – | 16.8 nM | 50.7 nM | 276 nM | 59.8 nM | – | – | 4440 |
| [2H]C([2H])([2H])c1cc(C#N)cc(C([2H])([2H])[2H])c1Oc1nc(NC2CCN(Cc3ccc(C(N)=O)cc3)CC2)nc2ccsc12 | 6.75 nM | 59.8 nM | 140 nM | 5.11 nM | > 241000 nM | 57.6 nM | – | 44.3 nM | 46.8 nM | 1740 nM | 78.2 nM | – | – | > 47200 |
| [2H]C([2H])([2H])c1cc(C#N)cc(C([2H])([2H])[2H])c1Oc1nc(NC2CCN(Cc3ccc(C(N)=O)cc3)CC2)nc2scnc12 | 2.79 nM | 11.3 nM | 160 nM | 2.36 nM | 21500 nM | 52.1 nM | – | 12.8 nM | 11.6 nM | 166 nM | 161 nM | – | – | 9130 |
| [2H]C([2H])([2H])c1cc(C#N)cc(C)c1Oc1nc(NC2CCN(Cc3ccc(C(N)=O)cc3)CC2)nc2ccccc12 | 4.86 nM | 63.1 nM | 210 nM | 5.4 nM | 150000 nM | 67.8 nM | – | 14.5 nM | 47 nM | 1810 nM | 1270 nM | – | – | 27900 |
| Cc1cc(-c2ccc(C#N)cc2)cc(C)c1Nc1ccnc(Nc2ccc(C#N)cc2)n1 | 2.88 nM | 8.16 nM | 340 nM | 1.86 nM | 6110 nM | 40.5 nM | – | 4.02 nM | 7.26 nM | 54.3 nM | 796 nM | – | – | 3280 |
